According to the supplement of paper PMC6045584:
± gives the standard deviation of the averaged measurements.

Assays:
[1] = compound: CCN(CC)CCCCNc1ncc2cc(-c3cc(OC)cc(OC)c3)c(NC(=O)NC(C)(C)C)nc2n1; experiment: surviving fraction relative to DMSO-only wells; higher = less growth inhibition; settings: exposure time: 5 days
Method in brief: (§1)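 Lines were retained only if, across three screens, replicate Pearson r was >0.7 and median Z' was >0.3. Viability was measured as CellTiter-Glo luminescence and reported as surviving fraction relative to the median of DMSO-only wells. Readings followed 10 minutes at room temperature, after log-phase tumour cells seeded at 250–500 per well in 384-well plates had been exposed, from 24 hours after seeding, continuously for five days to inhibitors at 0.5, 1, 5, 10, 50, 100, 500 and 1000 nM.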

[2] = compound: COc1ccc(C2=N[C@@H](c3ccc(Cl)cc3)[C@@H](c3ccc(Cl)cc3)N2C(=O)N2CCNC(=O)C2)c(OC(C)C)c1 [NUTLIN3]; experiment: as above; settings: exposure time: 5 days
Method in brief: as §1

| Test System | surviving fraction ([1]; 0.5 nM) | surviving fraction ([1]; 1 nM) | surviving fraction ([1]; 5 nM) | surviving fraction ([1]; 10 nM) | surviving fraction ([1]; 50 nM) | surviving fraction ([1]; 100 nM) | surviving fraction ([1]; 500 nM) | surviving fraction ([1]; 1000 nM) | surviving fraction ([2]; 0.5 nM) | surviving fraction ([2]; 1 nM) | surviving fraction ([2]; 5 nM) | surviving fraction ([2]; 10 nM) | surviving fraction ([2]; 50 nM) | surviving fraction ([2]; 100 nM) | surviving fraction ([2]; 500 nM) | surviving fraction ([2]; 1000 nM) |
| --- | --- | --- | --- | --- | --- | --- | --- | --- | --- | --- | --- | --- | --- | --- | --- | --- |
| SG27 HEADNECK | 0.947 ± 0.15 | 1.03 ± 0.087 | 1.01 ± 0.12 | 1.01 ± 0.086 | 0.879 ± 0.04 | 0.817 ± 0.032 | 0.784 ± 0.05 | 0.805 ± 0.047 | 1.01 ± 0.02 | 1.06 ± 0.12 | 0.998 ± 0.17 | 1.19 ± 0.19 | 0.998 ± 0.064 | 1 ± 0.062 | 0.788 ± 0.11 | 0.668 ± 0.06 |
| SG28 HEADNECK | 1.04 ± 0.15 | 1.09 ± 0.076 | 1.03 ± 0.09 | 1.11 ± 0.034 | 0.968 ± 0.028 | 1.05 ± 0.1 | 0.967 ± 0.091 | 0.938 ± 0.11 | 1.13 ± 0.065 | 1.03 ± 0.14 | 1.02 ± 0.12 | 1.07 ± 0.12 | 1.03 ± 0.14 | 1.02 ± 0.085 | 1.01 ± 0.11 | 0.919 ± 0.1 |
| SG31 HEADNECK | 1.04 ± 0.055 | 0.949 ± 0.11 | 0.934 ± 0.15 | 0.932 ± 0.12 | 0.845 ± 0.12 | 0.997 ± 0.051 | 0.934 ± 0.069 | 0.934 ± 0.1 | 1.08 ± 0.067 | 1.05 ± 0.2 | 1.06 ± 0.12 | 0.921 ± 0.035 | 0.854 ± 0.13 | 1.11 ± 0.23 | 0.906 ± 0.038 | 0.92 ± 0.057 |
| SG32 HEADNECK | 1.03 ± 0.14 | 1.05 ± 0.086 | 1.15 ± 0.13 | 1.01 ± 0.16 | 0.859 ± 0.027 | 0.793 ± 0.0076 | 1.36 ± 0.92 | 0.884 ± 0.15 | 1.27 ± 0.11 | 1.14 ± 0.29 | 1 ± 0.13 | 1.12 ± 0.095 | 1.18 ± 0.035 | 1.31 ± 0.45 | 0.895 ± 0.29 | 0.61 ± 0.07 |
| SG43 HEADNECK | 0.9 ± 0.076 | 0.971 ± 0.053 | 0.974 ± 0.15 | 0.966 ± 0.095 | 0.85 ± 0.13 | 0.905 ± 0.24 | 0.95 ± 0.12 | 0.811 ± 0.16 | 1.11 ± 0.1 | 0.915 ± 0.071 | 0.928 ± 0.11 | 0.772 ± 0.064 | 0.877 ± 0.14 | 0.778 ± 0.24 | 0.806 ± 0.24 | 0.565 ± 0.1 |
| SIHA CERVIX | 0.945 ± 0.075 | 0.972 ± 0.043 | 1.07 ± 0.055 | 1.07 ± 0.051 | 0.908 ± 0.063 | 0.905 ± 0.098 | 0.776 ± 0.027 | 0.818 ± 0.013 | 1.05 ± 0.062 | 0.991 ± 0.053 | 1.01 ± 0.12 | 1.07 ± 0.071 | 1.05 ± 0.073 | 1.2 ± 0.05 | 1.11 ± 0.15 | 1.14 ± 0.11 |
| SJSA1 BONE | 1.04 ± 0.052 | 1.04 ± 0.026 | 1.04 ± 0.026 | 1.09 ± 0.034 | 1.08 ± 0.021 | 1.07 ± 0.038 | 1.023 ± 0.0089 | 1.04 ± 0.034 | 1 ± 0.048 | 0.997 ± 0.041 | 1.05 ± 0.053 | 1 ± 0.064 | 1.03 ± 0.023 | 1.04 ± 0.02 | 0.823 ± 0.011 | 0.568 ± 0.027 |
| SKBR3 BREAST | 0.9 ± 0.11 | 0.967 ± 0.072 | 0.975 ± 0.22 | 0.851 ± 0.057 | 0.979 ± 0.13 | 0.992 ± 0.077 | 1 ± 0.05 | 0.848 ± 0.13 | 0.795 ± 0.15 | 1.01 ± 0.2 | 0.869 ± 0.1 | 0.844 ± 0.18 | 0.952 ± 0.14 | 0.8987 ± 0.0035 | 0.91 ± 0.029 | 0.885 ± 0.077 |
| SNU475 LIVER | 0.785 ± 0.028 | 0.964 ± 0.053 | 0.894 ± 0.05 | 0.987 ± 0.027 | 0.916 ± 0.044 | 0.939 ± 0.019 | 0.906 ± 0.022 | 0.886 ± 0.029 | 1.02 ± 0.066 | 0.981 ± 0.017 | 0.988 ± 0.045 | 0.984 ± 0.032 | 1 ± 0.028 | 1.03 ± 0.071 | 1.021 ± 0.009 | 1 ± 0.02 |
| SUM44 BREAST | 0.956 ± 0.064 | 0.928 ± 0.04 | 1.03 ± 0.019 | 1.04 ± 0.087 | 1.04 ± 0.095 | 1.04 ± 0.094 | 0.985 ± 0.026 | 1.03 ± 0.037 | 0.96 ± 0.028 | 0.915 ± 0.056 | 1.02 ± 0.03 | 1.04 ± 0.051 | 1.09 ± 0.055 | 1.06 ± 0.017 | 1.07 ± 0.084 | 0.964 ± 0.063 |
| SUM149 BREAST | 0.881 ± 0.14 | 1.12 ± 0.057 | 0.998 ± 0.037 | 1.21 ± 0.049 | 1.03 ± 0.069 | 1.1 ± 0.13 | 1.01 ± 0.056 | 1.08 ± 0.14 | 1.03 ± 0.098 | 1.12 ± 0.052 | 1.18 ± 0.053 | 1.15 ± 0.085 | 1.08 ± 0.075 | 1.13 ± 0.11 | 1.04 ± 0.047 | 1.01 ± 0.092 |
| SUM149.B1*.S BREAST | 0.852 ± 0.049 | 1 ± 0.017 | 0.952 ± 0.024 | 1.02 ± 0.021 | 0.933 ± 0.029 | 1.06 ± 0.041 | 1.03 ± 0.011 | 1.08 ± 0.017 | 1.03 ± 0.045 | 1.07 ± 0.0015 | 1.05 ± 0.011 | 1.07 ± 0.022 | 1.13 ± 0.037 | 1.12 ± 0.017 | 1.14 ± 0.024 | 1.11 ± 0.04 |
| SUM159 BREAST | 1.14 ± 0.3 | 1.1 ± 0.2 | 1.18 ± 0.36 | 1.14 ± 0.26 | 1.12 ± 0.26 | 1.13 ± 0.23 | 1.11 ± 0.21 | 1.18 ± 0.3 | 1.07 ± 0.059 | 1.05 ± 0.04 | 0.982 ± 0.076 | 0.991 ± 0.041 | 1.03 ± 0.027 | 0.998 ± 0.08 | 0.946 ± 0.17 | 0.916 ± 0.25 |
| SYO1 SYNOVIAL | 0.786 ± 0.081 | 0.961 ± 0.052 | 0.859 ± 0.044 | 0.868 ± 0.043 | 0.699 ± 0.016 | 0.727 ± 0.056 | 0.669 ± 0.055 | 0.653 ± 0.009 | 1.01 ± 0.039 | 0.997 ± 0.038 | 0.993 ± 0.019 | 0.979 ± 0.036 | 0.977 ± 0.042 | 0.934 ± 0.048 | 0.588 ± 0.026 | 0.468 ± 0.012 |
| T47D BREAST | 0.967 ± 0.03 | 1.02 ± 0.028 | 1.02 ± 0.047 | 1.01 ± 0.017 | 1.03 ± 0.023 | 1.02 ± 0.043 | 1.02 ± 0.054 | 1.08 ± 0.03 | 1.01 ± 0.029 | 0.993 ± 0.019 | 0.992 ± 0.043 | 1.01 ± 0.051 | 1.07 ± 0.029 | 1.08 ± 0.033 | 0.965 ± 0.075 | 0.937 ± 0.024 |
| U2OS BONE | 1 ± 0.011 | 0.994 ± 0.026 | 1.03 ± 0.045 | 1.01 ± 0.02 | 0.916 ± 0.012 | 0.825 ± 0.017 | 0.745 ± 0.049 | 0.739 ± 0.0095 | 1.02 ± 0.037 | 1.05 ± 0.037 | 1.04 ± 0.039 | 1.02 ± 0.049 | 1.04 ± 0.023 | 1.04 ± 0.028 | 0.974 ± 0.022 | 0.897 ± 0.036 |
| VCAP PROSTATE | 0.963 ± 0.068 | 1.07 ± 0.06 | 1.04 ± 0.047 | 1.1 ± 0.028 | 1.06 ± 0.034 | 1.12 ± 0.069 | 0.998 ± 0.059 | 1.01 ± 0.055 | 1.03 ± 0.066 | 1.13 ± 0.049 | 1.17 ± 0.088 | 1.25 ± 0.2 | 1.18 ± 0.24 | 1.18 ± 0.023 | 1.03 ± 0.14 | 1.11 ± 0.027 |
| VP229 BREAST | 1.15 ± 0.079 | 1.09 ± 0.031 | 1.1 ± 0.12 | 1.11 ± 0.028 | 1.22 ± 0.12 | 1.11 ± 0.13 | 1.22 ± 0.061 | 1.15 ± 0.11 | 1.16 ± 0.12 | 1.08 ± 0.21 | 1.21 ± 0.029 | 0.944 ± 0.17 | 0.972 ± 0.065 | 1.04 ± 0.082 | 1.13 ± 0.09 | 0.975 ± 0.037 |
| YAMATO SYNOVIAL | 0.852 ± 0.029 | 1.2 ± 0.13 | 1.19 ± 0.058 | 1.31 ± 0.062 | 1.14 ± 0.024 | 1.37 ± 0.037 | 1.2 ± 0.069 | 1.08 ± 0.088 | 1.42 ± 0.029 | 1.32 ± 0.13 | 1.43 ± 0.1 | 1.36 ± 0.1 | 1.5 ± 0.061 | 1.41 ± 0.15 | 1.4 ± 0.086 | 1.27 ± 0.13 |
| ZR751 BREAST | 0.946 ± 0.032 | 1.03 ± 0.063 | 0.954 ± 0.017 | 1.01 ± 0.19 | 0.912 ± 0.04 | 1.1 ± 0.11 | 1.01 ± 0.067 | 1.05 ± 0.12 | 1.26 ± 0.29 | 1.24 ± 0.11 | 1.02 ± 0.18 | 1.1 ± 0.011 | 1.11 ± 0.054 | 1.08 ± 0.23 | 0.786 ± 0.083 | 0.747 ± 0.024 |
